# Test results reported in patent US9493448B2, “Cycloalkane derivatives” (Daiichi Sankyo Company, Limited, priority 2012, dated 2016).
# Experiments:
# hNav 1.7 = hNav 1.7 (Homo sapiens (Human), UniProt Q15858); assay: Electrophysiological evaluation, automated patch clamp IonWorks Quattro (Population Patch Clamp mode); assay type: cell-based; conditions: HEK293A cells stably expressing hNav 1.7/β1/β2; response to second depolarization pulse, pre-pulse potential set to V1/2; read-out: hNav1.7 IC50
# Sequence of hNav 1.7 (Q15858 whole entry): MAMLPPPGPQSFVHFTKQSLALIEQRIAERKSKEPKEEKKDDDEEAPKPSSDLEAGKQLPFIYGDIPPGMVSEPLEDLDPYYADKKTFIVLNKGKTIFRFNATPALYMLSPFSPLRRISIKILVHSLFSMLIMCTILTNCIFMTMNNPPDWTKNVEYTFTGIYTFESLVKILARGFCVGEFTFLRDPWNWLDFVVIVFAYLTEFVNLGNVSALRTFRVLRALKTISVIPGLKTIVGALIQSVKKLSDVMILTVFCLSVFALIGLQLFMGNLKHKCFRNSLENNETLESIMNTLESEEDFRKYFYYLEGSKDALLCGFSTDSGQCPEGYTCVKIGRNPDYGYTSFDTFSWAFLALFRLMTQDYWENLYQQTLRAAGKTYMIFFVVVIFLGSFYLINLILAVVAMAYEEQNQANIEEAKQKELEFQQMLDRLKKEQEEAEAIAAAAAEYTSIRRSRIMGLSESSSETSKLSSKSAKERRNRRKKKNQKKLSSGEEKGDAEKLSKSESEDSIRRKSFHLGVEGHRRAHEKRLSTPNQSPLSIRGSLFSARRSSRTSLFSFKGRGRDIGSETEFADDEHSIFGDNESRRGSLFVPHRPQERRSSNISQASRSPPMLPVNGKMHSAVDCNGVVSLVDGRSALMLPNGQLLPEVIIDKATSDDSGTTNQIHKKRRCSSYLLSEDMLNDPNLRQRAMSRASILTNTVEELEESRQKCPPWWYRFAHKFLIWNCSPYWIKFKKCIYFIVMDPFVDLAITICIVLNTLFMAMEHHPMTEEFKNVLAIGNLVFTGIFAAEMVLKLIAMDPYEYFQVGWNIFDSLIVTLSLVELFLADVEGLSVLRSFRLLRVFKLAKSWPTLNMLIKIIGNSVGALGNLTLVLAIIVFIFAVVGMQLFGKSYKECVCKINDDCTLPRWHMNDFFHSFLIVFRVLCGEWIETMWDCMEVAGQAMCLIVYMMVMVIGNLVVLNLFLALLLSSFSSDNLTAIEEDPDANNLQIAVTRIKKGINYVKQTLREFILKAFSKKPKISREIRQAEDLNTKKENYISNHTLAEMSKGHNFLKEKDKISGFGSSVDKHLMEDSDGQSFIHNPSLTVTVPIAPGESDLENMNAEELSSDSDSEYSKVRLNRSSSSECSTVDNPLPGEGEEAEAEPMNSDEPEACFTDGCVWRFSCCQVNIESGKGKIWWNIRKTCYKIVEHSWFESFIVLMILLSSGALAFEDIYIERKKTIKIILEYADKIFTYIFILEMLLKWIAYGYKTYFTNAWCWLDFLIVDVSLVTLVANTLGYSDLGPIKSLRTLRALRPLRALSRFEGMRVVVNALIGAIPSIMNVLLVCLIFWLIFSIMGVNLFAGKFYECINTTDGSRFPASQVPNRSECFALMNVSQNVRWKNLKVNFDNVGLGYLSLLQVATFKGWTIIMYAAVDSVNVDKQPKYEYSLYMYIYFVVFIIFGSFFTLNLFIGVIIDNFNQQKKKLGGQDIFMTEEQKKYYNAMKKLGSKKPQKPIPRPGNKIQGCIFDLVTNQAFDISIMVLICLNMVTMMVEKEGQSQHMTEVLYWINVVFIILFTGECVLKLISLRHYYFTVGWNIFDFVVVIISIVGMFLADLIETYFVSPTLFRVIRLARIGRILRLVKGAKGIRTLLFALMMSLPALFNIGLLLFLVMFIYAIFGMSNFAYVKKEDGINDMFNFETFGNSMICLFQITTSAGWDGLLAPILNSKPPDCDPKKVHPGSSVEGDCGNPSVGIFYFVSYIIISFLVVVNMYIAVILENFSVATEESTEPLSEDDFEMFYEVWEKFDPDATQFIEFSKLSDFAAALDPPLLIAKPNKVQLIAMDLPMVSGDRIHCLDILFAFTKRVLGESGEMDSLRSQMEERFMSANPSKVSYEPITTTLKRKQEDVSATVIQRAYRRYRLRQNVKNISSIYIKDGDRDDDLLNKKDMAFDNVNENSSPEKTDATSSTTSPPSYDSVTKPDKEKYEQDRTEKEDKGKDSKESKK
# Sequence of hNav 1.7 (Q07699 19-218 partner): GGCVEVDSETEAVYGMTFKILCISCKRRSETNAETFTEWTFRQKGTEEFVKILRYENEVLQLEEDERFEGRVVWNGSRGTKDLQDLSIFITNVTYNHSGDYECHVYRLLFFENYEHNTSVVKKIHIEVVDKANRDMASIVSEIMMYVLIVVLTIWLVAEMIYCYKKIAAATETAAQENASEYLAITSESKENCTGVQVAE
# Sequence of hNav 1.7 (O60939 30-215 partner): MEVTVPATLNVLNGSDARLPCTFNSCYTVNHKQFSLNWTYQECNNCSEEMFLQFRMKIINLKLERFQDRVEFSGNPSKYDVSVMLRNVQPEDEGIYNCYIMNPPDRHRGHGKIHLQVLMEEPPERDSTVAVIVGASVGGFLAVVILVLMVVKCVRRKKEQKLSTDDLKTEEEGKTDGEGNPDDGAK
# [1] = system: mice and rats affected by thermal hyperalgesia; assay: Thermal hyperalgesia assay; assay type: in vivo; conditions: oral administration, constant dose, against the vehicle treatment group; latency to escape behaviors after thermal stimulation of hind paw;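 note: measurement times set by the study director and not disclosed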
Compound,IC50 (hNav 1.7),Ratio of improving pain score (%) [1]
"Cn1nccc1[C@H]1CCC[C@@H]1Oc1ccc(S(=O)(=O)Nc2ccncn2)cc1Cl (relative stereo) [Example 23, 3-Chloro-4-({[(1S*,2R*)-2-(1-methyl-1H-pyrazol-5-yl)cyclopentyl]oxy}-N-(pyrimidin-4-yl)benzenesulfonamide]",130 nM,A (“A” when the rate was 61 to 100%)
"CCn1nccc1[C@H]1CCCC[C@@H]1Oc1cc(F)c(S(=O)(=O)Nc2ccncn2)cc1F (relative stereo) [Example 28, 4-{[(1S*,2R*)-2-(1-Ethyl-1H-pyrazol-5-yl)cyclohexyl]oxy}-2,5-difluoro-N-(pyrimidin-4-yl)benzenesulfonamide]",46 nM,C (“C” when the rate was 0 to 30%)
"Cn1nccc1[C@H]1CCC[C@@H]1Oc1ccc(S(=O)(=O)Nc2ccncn2)c(F)c1 (relative stereo) [Example 29, 2-Fluoro-4-{[(1S*,2R*)-2-(1-methyl-1H-pyrazol-5-yl)cyclopentyl]oxy}-N-(pyrimidin-4-yl)benzenesulfonamide]",1800 nM,A (“A” when the rate was 61 to 100%)
"O=S(=O)(Nc1ccncn1)c1cc(F)c(O[C@H]2CCCC[C@@H]2c2cn[nH]c2)cc1F (relative stereo) [Example 33, 2,5-Difluoro-4-{[(1S*,2R*)-2-(1H-pyrazol-4-yl)cyclohexyl]oxy}-N-(pyrimidin-4-yl)benzenesulfonamide]",300 nM,A (“A” when the rate was 61 to 100%)
"Nc1cc([C@H]2CCCC[C@@H]2Oc2cc(F)c(S(=O)(=O)Nc3ccncn3)cc2F)ccn1 (relative stereo) [Example 35, 4-{[(1S*,2R*)-2-(2-Aminopyridin-4-yl)cyclohexyl]oxy}-2,5-difluoro-N-(pyrimidin-4-yl)benzenesulfonamide]",99 nM,B (“B” when the rate was 31 to 60%)
"CCn1nccc1[C@H]1CCC[C@@H]1Oc1cc(F)c(S(=O)(=O)Nc2ccncn2)cc1F (relative stereo) [Example 37, 4-{[(1S*,2R*)-2-(1-Ethyl-1H-pyrazol-5-yl)cyclopentyl]oxy}-2,5-difluoro-N-(pyrimidin-4-yl)benzenesulfonamide]",210 nM,C (“C” when the rate was 0 to 30%)
"Cn1nccc1[C@H]1CC(F)(F)CC[C@@H]1Oc1ccc(S(=O)(=O)Nc2ccncn2)c(F)c1 (relative stereo) [Example 130, 4-{[(1S*,2R*)-4,4-Difluoro-2-(1-methyl-1H-pyrazol-5-yl)cyclohexyl]oxy}-2-fluoro-N-(pyrimidin-4-yl)benzenesulfonamide]",880 nM,
"Cn1nccc1[C@H]1CCCC[C@@H]1Oc1cc(F)c(S(=O)(=O)Nc2ccnc(=O)[nH]2)cc1Cl (relative stereo) [Example 153, 5-Chloro-2-fluoro-4-{[(1S*,2R*)-2-(1-methyl-1H-pyrazol-5-yl)cyclohexyl]oxy}-N-(2-oxo-2,3-dihydropyrimidin-4-yl)benzenesulfonamide]",> 100000 nM,
"Cc1cc(S(=O)(=O)Nc2ccncn2)c(F)cc1O[C@H]1CC(F)(F)CC[C@@H]1c1ccn[nH]1 (relative stereo) [Example 155, 4-{[(1S*,2R*)-5,5-Difluoro-2-(1H-pyrazol-5-yl)cyclohexyl]oxy}-2-fluoro-5-methyl-N-(pyrimidin-4-yl)benzenesulfonamide]",28 nM,
"O=S(=O)(Nc1ccncn1)c1cc(Cl)c(O[C@H]2CC(F)(F)CC[C@@H]2c2ccn[nH]2)cc1F (relative stereo) [Example 156, 5-Chloro-4-{[(1S*,2R*)-5,5-difluoro-2-(1H-pyrazol-5-yl)cyclohexyl]oxy}-2-fluoro-N-(pyrimidin-4-yl)benzenesulfonamide]",41 nM,
"Cc1cc(S(=O)(=O)Nc2ccncn2)c(F)cc1O[C@H]1CCC(F)(F)C[C@@H]1c1ccn[nH]1 (relative stereo) [Example 157, 4-{[(1S*,2R*)-4,4-Difluoro-2-(1H-pyrazol-5-yl)cyclohexyl]oxy}-2-fluoro-5-methyl-N-(pyrimidin-4-yl)benzenesulfonamide]",50 nM,
"Cn1nccc1[C@H]1CC[C@@H](O)C[C@@H]1Oc1cc(F)c(S(=O)(=O)Nc2ccncn2)cc1Cl (relative stereo) [Example 160, 5-Chloro-2-fluoro-4-{[(1S*,2R*,5R*)-5-hydroxy-2-(1-methyl-1H-pyrazol-5-yl)cyclohexyl]oxy}-N-(pyrimidin-4-yl)benzenesulfonamide]",560 nM,
"Cn1nccc1[C@H]1C[C@H](O)CC[C@@H]1Oc1cc(F)c(S(=O)(=O)Nc2ccncn2)cc1Cl (relative stereo) [Example 161, 5-Chloro-2-fluoro-4-{[(1S*,2R*,4R*)-4-hydroxy-2-(1-methyl-1H-pyrazol-5-yl)cyclohexyl]oxy}-N-(pyrimidin-4-yl)benzenesulfonamide]",130 nM,
"Cn1nccc1[C@H]1C[C@@H](O)CC[C@@H]1Oc1cc(F)c(S(=O)(=O)Nc2ccncn2)cc1Cl (relative stereo) [Example 162, 5-Chloro-2-fluoro-4-{[(1S*,2R*,4S*)-4-hydroxy-2-(1-methyl-1H-pyrazol-5-yl)cyclohexyl]oxy}-N-(pyrimidin-4-yl)benzenesulfonamide]",820 nM,
"Cn1nccc1[C@H]1CC[C@H](O)C[C@@H]1Oc1cc(F)c(S(=O)(=O)Nc2ccncn2)cc1Cl (relative stereo) [Example 163, 5-Chloro-2-fluoro-4-{[(1S*,2R*,5S*)-5-hydroxy-2-(1-methyl-1H-pyrazol-5-yl)cyclohexyl]oxy}-N-(pyrimidin-4-yl)benzenesulfonamide]",190 nM,
"O=S(=O)(Nc1ncns1)c1cc(F)c(O[C@H]2CCCC[C@@H]2c2ccccc2)cc1F (single isomer, unassigned) [Example 1, 2,5-Difluoro-4-{[(1S*,2R*)-2-phenylcyclohexyl]oxy}-N-(1,2,4-thiadiazol-5-yl)benzenesulfonamide]",120 nM,
"O=S(=O)(Nc1ncns1)c1cc(F)c(O[C@H]2CCCC[C@@H]2c2ccccc2)cc1F [Example 2, 2,5-Difluoro-4-{[(1S,2R)-2-phenylcyclohexyl]oxy}-N-(1,2,4-thiadiazol-5-yl)benzenesulfonamide]",20 nM,
"O=S(=O)(Nc1ncns1)c1cc(F)c(O[C@@H]2CCCC[C@H]2c2ccccc2)cc1F [Example 75, 2,5-Difluoro-4-{[(1R,2S)-2-phenylcyclohexyl]oxy}-N-(1,2,4-thiadiazol-5-yl)benzenesulfonamide]",> 10000 nM,
"Cn1nccc1[C@H]1CCC(F)(F)C[C@@H]1Oc1cc(F)c(S(=O)(=O)Nc2ccncn2)cc1F [Example 102, 4-{[(1S,2R)-5,5-Difluoro-2-(1-methyl-1H-pyrazol-5-yl)cyclohexyl]oxy}-2,5-difluoro-N-(pyrimidin-4-yl)benzenesulfonamide]",36 nM,
"Cn1nccc1[C@H]1CCC[C@@H]1Oc1ccc(S(=O)(=O)Nc2ccncn2)c(F)c1 [Example 124, 2-Fluoro-4-{[(1S,2R)-2-(1-methyl-1H-pyrazol-5-yl)cyclopentyl]oxy}-N-(pyrimidin-4-yl)benzenesulfonamide]",2400 nM,
"Cc1cc(S(=O)(=O)Nc2ccncn2)c(F)cc1O[C@@H]1CC(F)(F)CC[C@H]1c1cn[nH]c1 [Example 144, 4-{[(1R,2S)-5,5-Difluoro-2-(1H-pyrazol-4-yl)cyclohexyl]oxy}-2-fluoro-5-methyl-N-(pyrimidin-4-yl)benzenesulfonamide]",3400 nM,
"Cc1cc(S(=O)(=O)Nc2ccncn2)c(F)cc1O[C@@H]1CCC[C@H]1c1ccn[nH]1 [Example 149, 2-Fluoro-5-methyl-4-{[(1R,2S)-2-(1H-pyrazol-5-yl)cyclopentyl]oxy}-N-(pyrimidin-4-yl)benzenesulfonamide]",32000 nM,
"O=S(=O)(Nc1ccncn1)c1cc(Cl)c(O[C@@H]2CCC[C@H]2c2ccn[nH]2)cc1F [Example 151, 5-Chloro-2-fluoro-4-{[(1R,2S)-2-(1H-pyrazol-5-yl)cyclopentyl]oxy}-N-(pyrimidin-4-yl)benzenesulfonamide]",33000 nM,
"O=S(=O)(Nc1ccncn1)c1cc(Cl)c(O[C@@H]2CCCC[C@H]2c2ccn[nH]2)cc1F [Example 159, 5-Chloro-2-fluoro-4-{[(1R,2S)-2-(1H-pyrazol-5-yl)cyclohexyl]oxy}-N-(pyrimidin-4-yl)benzenesulfonamide]",9800 nM,
"Cn1nccc1[C@@H]1C[C@@H](O)CC[C@H]1Oc1cc(F)c(S(=O)(=O)Nc2ccncn2)cc1Cl [Example 164, 5-Chloro-2-fluoro-4-{[(1R,2S,4S)-4-hydroxy-2-(1-methyl-1H-pyrazol-5-yl)cyclohexyl]oxy}-N-(pyrimidin-4-yl)benzenesulfonamide]",> 10000 nM,
"CC(=O)O[C@@H]1CC[C@H](Oc2cc(F)c(S(=O)(=O)Nc3ccncn3)cc2Cl)[C@@H](c2ccnn2C)C1 [Example 166, (1R,3R,4S)-4-[2-Chloro-5-fluoro-4-(pyrimidin-4-ylsulfamoyl)phenoxy]-3-(1-methyl-1H-pyrazol-5-yl)cyclohexyl acetate]",59 nM,
"O=S(=O)(Nc1ccncn1)c1c(F)cc(O[C@@H]2CCCC[C@H]2c2cn[nH]c2)cc1F [Example 169, 2,6-Difluoro-4-{[(1R,2S)-2-(1H-pyrazol-4-yl)cyclohexyl]oxy}-N-(pyrimidin-4-yl)benzenesulfonamide]",> 10000 nM,
"Cc1cc(S(=O)(=O)Nc2ccncn2)c(F)cc1O[C@@H]1CCCC[C@H]1c1cn[nH]c1 [Example 170, 2-Fluoro-5-methyl-4-{[(1R,2S)-2-(1H-pyrazol-4-yl)cyclohexyl]oxy}-N-(pyrimidin-4-yl)benzenesulfonamide]",> 10000 nM,
"Cc1cc(S(=O)(=O)Nc2ccncn2)c(F)cc1O[C@H]1CCCC[C@@H]1c1cn[nH]c1 [Example 172, 2-Fluoro-5-methyl-4-{[(1S,2R)-2-(1H-pyrazol-4-yl)cyclohexyl]oxy}-N-(pyrimidin-4-yl)benzenesulfonamide]",34 nM,
